Results: ChEMBL document CHEMBL1201862, “PubChem BioAssay data set” (2004)
Activity calls are given as the source filed them.

How the values were obtained:
[1] = inhibitors of SNCA 5'UTR-driven translation, confirmation, luminescence, H4 neuroglioblastoma cells, dose confirmation (AID 2454); type: functional, cell-based;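 note: H4 neuroglioblastoma cells carrying an alpha-synuclein 5'UTR luciferase reporter; potency for inhibition of the luciferase signal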
[2] = inhibitors of firefly luciferase expression or activity, dose response, H4 neuroglioma cells, luminescence (AID 1990); type: functional, cell-based
[3] = luciferase reporter signal reduction – luminescence, H4-C neuroglioblastoma cells, dose response (AID 2458); type: functional, cell-based;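 note: H4 neuroglioblastoma cells stably carrying a luciferase reporter gene fusion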
[4] = target: Sphingosine 1-phosphate receptor 1 (Homo sapiens, UniProt P21453); type: functional;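 note: Tango beta-arrestin reporter U2OS cells stimulated with S1P near its EC80; inhibitor potency meaning antagonism of receptor activation by the natural agonist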
[5] = Luminescence Cell-Based Dose Response HTS to Identify Inhibitors of 5'UTR Stem-Loop Driven Prion Protein mRNA Translation in H4 Neuroglioblastoma Cells. [Related pubchem assays: 1827 (Project Summary), 1813 (Primary HTS)]; type: functional
ORF 73 = ORF 73 (Human herpesvirus 8, UniProt O40947); test: inhibitors of C-LANA binding to LBS DNA, dose response, biochemical, fluorescence polarization, cherry-picked samples (AID 504725); set-up: species or system Human gammaherpesvirus 8;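 note: fluorescence polarization of a labeled DNA duplex reporting LANA DNA binding; potency is for inhibitors that block LANA binding to the DNA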
Caspase-6 = target: T1, Caspase-6 (Homo sapiens, UniProt P55212); test: human caspase-6 inhibitors, dose response, biochemical, VEID-R110 fluorescence, cherry-pick (AID 720632)
T1 sequence (P55212 whole entry): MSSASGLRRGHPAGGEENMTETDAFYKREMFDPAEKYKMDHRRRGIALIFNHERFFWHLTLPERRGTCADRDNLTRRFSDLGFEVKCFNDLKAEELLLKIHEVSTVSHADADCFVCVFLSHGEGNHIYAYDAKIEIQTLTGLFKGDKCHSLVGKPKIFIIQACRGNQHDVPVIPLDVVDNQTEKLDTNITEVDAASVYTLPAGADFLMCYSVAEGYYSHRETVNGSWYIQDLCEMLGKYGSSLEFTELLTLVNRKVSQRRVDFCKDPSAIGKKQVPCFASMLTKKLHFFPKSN

Caspase-7 = target: T2, Caspase-7 (Homo sapiens, UniProt P55210); test: human caspase-7 inhibitors, dose response, selectivity assay for caspase-6 inhibitor project, biochemical, DEVD-R110 fluorescence, cherry-pick (AID 743295)
T2 sequence (P55210 whole entry): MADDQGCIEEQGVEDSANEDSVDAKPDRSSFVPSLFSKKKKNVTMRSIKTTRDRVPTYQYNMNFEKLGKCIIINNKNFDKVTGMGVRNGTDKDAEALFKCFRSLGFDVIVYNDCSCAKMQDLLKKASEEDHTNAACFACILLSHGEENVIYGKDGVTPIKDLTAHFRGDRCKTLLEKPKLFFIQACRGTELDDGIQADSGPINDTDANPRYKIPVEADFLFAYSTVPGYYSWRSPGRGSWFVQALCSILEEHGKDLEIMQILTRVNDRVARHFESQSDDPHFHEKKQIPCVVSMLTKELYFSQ

[6] = target: T3, Apoptotic protease-activating factor 1 (Homo sapiens, UniProt O14727); type: functional
T3 sequence (O14727 whole entry): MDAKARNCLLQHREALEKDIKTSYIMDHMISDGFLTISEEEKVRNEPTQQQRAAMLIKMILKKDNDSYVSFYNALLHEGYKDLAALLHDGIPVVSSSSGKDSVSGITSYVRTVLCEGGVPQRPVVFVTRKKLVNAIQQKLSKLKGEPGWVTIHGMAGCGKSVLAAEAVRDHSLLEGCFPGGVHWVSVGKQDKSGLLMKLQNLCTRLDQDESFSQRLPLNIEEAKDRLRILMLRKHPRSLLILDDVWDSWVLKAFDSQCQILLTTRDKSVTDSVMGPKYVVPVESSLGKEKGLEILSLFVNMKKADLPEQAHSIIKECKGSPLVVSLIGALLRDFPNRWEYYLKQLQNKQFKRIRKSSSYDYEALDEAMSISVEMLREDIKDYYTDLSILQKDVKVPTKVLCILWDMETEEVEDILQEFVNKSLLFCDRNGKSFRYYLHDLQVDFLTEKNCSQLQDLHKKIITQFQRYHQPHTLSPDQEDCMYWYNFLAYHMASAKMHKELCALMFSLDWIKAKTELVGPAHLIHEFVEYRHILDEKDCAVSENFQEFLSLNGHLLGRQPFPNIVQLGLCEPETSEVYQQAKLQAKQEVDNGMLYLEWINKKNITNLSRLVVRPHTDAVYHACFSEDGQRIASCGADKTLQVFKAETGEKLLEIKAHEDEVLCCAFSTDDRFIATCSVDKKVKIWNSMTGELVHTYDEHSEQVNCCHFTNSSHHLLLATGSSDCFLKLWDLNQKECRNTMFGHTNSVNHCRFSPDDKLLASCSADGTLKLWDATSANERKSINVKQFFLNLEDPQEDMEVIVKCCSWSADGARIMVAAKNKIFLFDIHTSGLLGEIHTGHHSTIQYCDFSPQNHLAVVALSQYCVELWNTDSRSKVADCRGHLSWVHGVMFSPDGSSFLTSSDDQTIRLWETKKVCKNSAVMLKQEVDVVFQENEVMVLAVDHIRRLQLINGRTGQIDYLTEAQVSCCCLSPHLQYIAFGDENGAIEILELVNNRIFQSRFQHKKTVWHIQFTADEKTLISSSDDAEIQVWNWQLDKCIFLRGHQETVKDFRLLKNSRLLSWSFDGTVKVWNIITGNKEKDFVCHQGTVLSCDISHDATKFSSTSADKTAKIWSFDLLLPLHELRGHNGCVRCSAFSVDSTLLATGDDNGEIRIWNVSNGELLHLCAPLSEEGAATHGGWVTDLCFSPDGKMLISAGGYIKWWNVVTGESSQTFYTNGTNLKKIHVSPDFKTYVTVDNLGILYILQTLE

Chain of Sphingosine 1-phosphate receptor 1 (P21453 whole entry): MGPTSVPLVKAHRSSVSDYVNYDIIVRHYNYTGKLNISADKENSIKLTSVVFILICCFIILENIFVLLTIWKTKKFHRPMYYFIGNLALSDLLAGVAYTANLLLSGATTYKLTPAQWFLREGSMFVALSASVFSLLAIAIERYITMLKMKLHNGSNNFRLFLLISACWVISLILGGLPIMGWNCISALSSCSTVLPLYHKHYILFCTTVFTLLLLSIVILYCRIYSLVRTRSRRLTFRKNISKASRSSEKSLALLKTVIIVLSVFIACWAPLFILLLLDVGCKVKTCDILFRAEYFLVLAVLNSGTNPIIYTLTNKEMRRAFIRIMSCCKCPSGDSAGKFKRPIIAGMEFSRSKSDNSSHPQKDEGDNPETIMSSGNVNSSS
Chain of ORF 73 (O40947 whole entry): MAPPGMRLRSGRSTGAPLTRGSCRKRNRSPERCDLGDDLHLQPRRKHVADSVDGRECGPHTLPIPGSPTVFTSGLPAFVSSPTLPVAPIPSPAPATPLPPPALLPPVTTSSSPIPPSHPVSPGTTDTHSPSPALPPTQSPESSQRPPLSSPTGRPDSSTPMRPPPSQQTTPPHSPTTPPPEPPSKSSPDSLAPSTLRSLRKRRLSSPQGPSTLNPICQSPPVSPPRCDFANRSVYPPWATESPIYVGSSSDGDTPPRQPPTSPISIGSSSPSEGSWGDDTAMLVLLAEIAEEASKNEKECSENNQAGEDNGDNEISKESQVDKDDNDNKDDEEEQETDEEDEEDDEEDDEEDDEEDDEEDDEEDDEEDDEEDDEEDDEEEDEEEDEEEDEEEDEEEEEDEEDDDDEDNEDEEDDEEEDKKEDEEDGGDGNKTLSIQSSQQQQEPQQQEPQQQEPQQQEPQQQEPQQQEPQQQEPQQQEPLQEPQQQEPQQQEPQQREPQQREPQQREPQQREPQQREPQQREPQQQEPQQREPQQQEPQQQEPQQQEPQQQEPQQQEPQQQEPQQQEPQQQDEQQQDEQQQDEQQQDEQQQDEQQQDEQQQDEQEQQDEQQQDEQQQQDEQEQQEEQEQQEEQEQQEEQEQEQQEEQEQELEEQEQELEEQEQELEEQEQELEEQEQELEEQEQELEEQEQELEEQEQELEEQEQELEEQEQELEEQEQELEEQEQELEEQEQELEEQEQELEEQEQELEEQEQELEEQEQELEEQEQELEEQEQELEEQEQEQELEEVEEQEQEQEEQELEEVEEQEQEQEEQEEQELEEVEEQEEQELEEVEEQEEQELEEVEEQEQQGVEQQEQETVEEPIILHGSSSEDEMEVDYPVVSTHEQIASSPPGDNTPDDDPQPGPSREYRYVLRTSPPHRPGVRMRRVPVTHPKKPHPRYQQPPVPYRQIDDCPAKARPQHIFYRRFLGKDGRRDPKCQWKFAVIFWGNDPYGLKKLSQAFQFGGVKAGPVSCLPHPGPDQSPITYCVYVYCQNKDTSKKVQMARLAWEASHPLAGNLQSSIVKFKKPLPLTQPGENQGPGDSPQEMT

SMILES: Cc1oc2c(c1C(=O)NCc1cccnc1)C(=O)c1ccccc1C2=O
- EC50 [1]: 145 nM (active)
- EC50 [2]: < 100 nM (active)
- EC50 [3]: 127 nM (active)
- IC50 [4]: 3650 nM (active)
- EC50 [5]: < 100 nM (active)

SMILES: O=c1ccc2c(-c3ccccc3S(=O)(=O)O)c3ccc(O)c(O)c3oc-2c1O [PYROGALLOL RED]
- AC50 (ORF 73): 526 nM (active)
- AC50 (Caspase-6): 192 nM (active)
- AC50 (Caspase-7): > 70000 nM (inactive)

SMILES: CCCCCCCCCCOC(=O)C[n+]1c(COc2ccccc2OC)n(C)c2ccccc21
- IC50 [6]: 14300 nM (active)
